target: T1, P2X7 receptor (Homo sapiens, UniProt Q99572); assay: IL-1β release assay in differentiated THP-1 cells stimulated with BzATP (Example 9); type: cell-based; set-up: inhibition: dose or concentration left out as unconfirmed; conditions: 0.1 μM compound; differentiated THP-1 cells, BzATP 250 uM; "*" class symbols; read-out: IL-1β % Inhib. ("*" symbols: at 0.1 μM)
T1 construct: host or cells: THP-1 cells differentiated with LPS and IFN-γ
T1 sequence (Q99572 1-595): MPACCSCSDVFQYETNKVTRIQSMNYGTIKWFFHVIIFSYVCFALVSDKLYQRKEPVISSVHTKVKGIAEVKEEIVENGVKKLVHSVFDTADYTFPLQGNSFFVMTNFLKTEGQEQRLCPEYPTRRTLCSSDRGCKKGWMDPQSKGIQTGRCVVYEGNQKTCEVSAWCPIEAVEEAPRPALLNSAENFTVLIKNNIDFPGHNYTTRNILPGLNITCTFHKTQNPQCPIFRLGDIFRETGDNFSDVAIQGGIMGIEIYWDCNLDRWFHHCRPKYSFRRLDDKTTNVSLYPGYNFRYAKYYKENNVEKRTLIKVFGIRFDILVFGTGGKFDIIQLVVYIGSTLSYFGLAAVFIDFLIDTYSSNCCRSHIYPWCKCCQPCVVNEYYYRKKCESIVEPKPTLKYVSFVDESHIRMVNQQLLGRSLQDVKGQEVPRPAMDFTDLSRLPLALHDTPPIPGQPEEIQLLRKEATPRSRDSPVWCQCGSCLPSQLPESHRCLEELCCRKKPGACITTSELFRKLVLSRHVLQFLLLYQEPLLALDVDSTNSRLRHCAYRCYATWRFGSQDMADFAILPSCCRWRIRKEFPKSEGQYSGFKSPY
Method in brief: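 IC50 derived by four-parameter logistic fit of percent inhibition of IL-1β release, measured by ELISA after 45 min stimulation with 250 uM BzATP. Cells: THP-1 differentiated 16 h with 100 ng/mL LPS plus IFN-γ, LPS-primed 2 h, compound added 30 min beforehand.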

| inhibition at 0.1 µM [%] | SMILES |
| --- | --- |
| 0 to 25 | COc1ccc(C(=O)Nc2cccc3c(=O)n(Cc4ccc(OC(F)(F)F)cc4)ccc23)cc1C [Compound 1608] |
| 0 to 25 | COc1ccc(CC(=O)Nc2cccc3c(=O)n(Cc4ccc(OC(F)(F)F)cc4)ccc23)cc1C [Compound 1605] |

same assay, conditions: 0.3 μM compound; differentiated THP-1 cells, BzATP 250 uM; "+" class symbols; read-out: IL-1β % Inhib. @ 0.3 μM

| inhibition at 0.3 µM [%] | SMILES |
| --- | --- |
| ≥ 76 | CC(c1ccccn1)n1ccc2c(NC(=O)Cc3cccc(C(F)(F)F)c3F)cccc2c1=O (stereo not shown) [Compound 1633, 2-(2-Fluoro-3-trifluoromethyl-phenyl)-N-[1-oxo-2-(1-pyridin-2-yl-ethyl)-1,2-dihydro-isoquinolin-5-yl]-acetamide] |
| 0 to 25 | CO[C@@](C(=O)Nc1cccc2c(=O)n(CCN(C)C)ccc12)(c1ccccc1)C(F)(F)F [Compound 1615] |
| 26 to 50 | CC1(C)CCCC(O)(CC(=O)Nc2cccc3c(=O)n(CCS(C)(=O)=O)ccc23)C1 (stereo not shown) [Compound 1629] |
| ≥ 76 | CC(C)(C)OC(=O)N1CCC[C@@H]1Cn1ccc2c(NC(=O)Cc3ccc(Cl)c(C(F)(F)F)c3)cccc2c1=O [Compound 1620] |

same assay, conditions: 0.3 μM compound; differentiated THP-1 cells, BzATP 250 uM; '+' class symbols; read-out: IL-1β % Inhib. @ 0.3 μM

| inhibition at 0.3 µM [%] | SMILES |
| --- | --- |
| 0 to 25 | Cc1ccc(C(=O)Nc2cccc3c(=O)n(CCN4CCOCC4)ccc23)c(C)c1 [Compound 1193] |
| 0 to 25 | Cc1ccc(Cl)cc1C(=O)Nc1cccc2c(=O)n(CCN(C)C)ccc12 [Compound 1180] |
| 0 to 25 | COc1cccc(CC(=O)Nc2cccc3c(=O)n(CC4CCOCC4)ccc23)c1 [Compound 1102] |
| 0 to 25 | CCOc1ccc(C(=O)Nc2cccc3c(=O)n(CC4CCOCC4)ccc23)cc1 [Compound 1091] |
| 0 to 25 | O=C(CCc1ccccc1Cl)Nc1cccc2c(=O)n(CCN3CCOCC3)ccc12 [Compound 1045] |
| 26 to 50 | CN(C)CCn1ccc2c(NC(=O)CC3CC4CC[C@H]3C4)cccc2c1=O (stereo partly shown) [Compound 1167] |
| 0 to 25 | O=C(Nc1cccc2c(=O)n(Cc3cccnc3)ccc12)c1ccc(-c2ccccc2)o1 [Compound 1074] |
| 0 to 25 | Cc1ccccc1C(=O)Nc1cccc2c(=O)n(CCN(C)C)ccc12 [Compound 1007] |
| 0 to 25 | CN(C)CCn1ccc2c(NC(=O)CCc3ccccc3)cccc2c1=O [Compound 1003] |
| 0 to 25 | COc1ccccc1CCC(=O)Nc1cccc2c(=O)n(CC3CCOCC3)ccc12 [Compound 1094] |
| 0 to 25 | Cc1ccc(C(=O)Nc2cccc3c(=O)n(CC4CCOCC4)ccc23)c(C)c1 [Compound 1087] |

same assay, conditions: 0.3 μM compound; differentiated THP-1 cells, BzATP 250 uM; symbols + to ++++; read-out: IL-1β % Inhib. @ 0.3 μM

| inhibition at 0.3 µM [%] | SMILES |
| --- | --- |
| 0 to 25 | COc1ccc(CCC(=O)Nc2cccc3c(=O)n(C)ccc23)cc1 [Compound 1293] |
| 0 to 25 | COc1ccc(CC(=O)Nc2cccc3c(=O)n(Cc4cccnc4)ccc23)cc1 [Compound 1355] |
| 0 to 25 | COc1ccccc1CCC(=O)Nc1cccc2c(=O)n(CC(C)(C)C)ccc12 [Compound 1248] |
| 0 to 25 | CC(C(=O)Nc1cccc2c(=O)n(C)ccc12)c1ccccc1 (stereo not shown) [Compound 1292] |
| 0 to 25 | COc1ccc(OC)c(CC(=O)Nc2cccc3c(=O)n(Cc4cccnc4)ccc23)c1 [Compound 1352] |
| 0 to 25 | Cc1cccc(CCC(=O)Nc2cccc3c(=O)n(CC(C)(C)C)ccc23)c1 [Compound 1284] |
| 0 to 25 | Cc1ccccc1CC(=O)Nc1cccc2c(=O)n(C)ccc12 [Compound 1296] |
| 0 to 25 | COc1c(C)cc(C(=O)Nc2cccc3c(=O)n(Cc4cccnc4)ccc23)cc1C [Compound 1361] |
| 0 to 25 | O=C(Nc1cccc2c(=O)n(Cc3cccnc3)ccc12)c1ccc2c(c1)OCCCO2 [Compound 1364] |
| 0 to 25 | COc1ccc(CCC(=O)Nc2cccc3c(=O)n(CCN4CCOCC4)ccc23)cc1 [Compound 1202] |
| 0 to 25 | COCCn1ccc2c(NC(=O)c3ccc(F)c(C)c3)cccc2c1=O [Compound 1334] |
| ≥ 76 | CN(C)CCn1ccc2c(NC(=O)Cc3ccc(Cl)c(C(F)(F)F)c3)cccc2c1=O [Compound 1385] |
| 0 to 25 | COCCn1ccc2c(NC(=O)CCc3ccc(Cl)cc3)cccc2c1=O [Compound 1335] |
| 0 to 25 | CC(C)(C)Cn1ccc2c(NC(=O)CC3CC4CC[C@H]3C4)cccc2c1=O (stereo partly shown) [Compound 1270] |
| 0 to 25 | COc1ccc(CC(=O)Nc2cccc3c(=O)n(CCN4CCOCC4)ccc23)cc1 [Compound 1212] |
| 0 to 25 | COCCn1ccc2c(NC(=O)c3ccc(CC(C)C)cc3)cccc2c1=O [Compound 1343] |
| 0 to 25 | Cc1ccc(C(=O)Nc2cccc3c(=O)n(CCN4CCOCC4)ccc23)cc1Cl [Compound 1220] |
| 0 to 25 | O=C(Cc1ccccc1F)Nc1cccc2c(=O)n(CCN3CCOCC3)ccc12 [Compound 1204] |
| 0 to 25 | Cc1ccc(CC(=O)Nc2cccc3c(=O)n(CC(C)(C)C)ccc23)cc1 [Compound 1262] |
| 0 to 25 | COc1c(C)cc(C(=O)Nc2cccc3c(=O)n(CC(C)(C)C)ccc23)cc1C [Compound 1267] |

same assay, conditions: THP-1; read-out: IL-1β % Inhib.

| SMILES | inhibition [%] |
| --- | --- |
| COc1ccc(C(=O)Nc2cccc3c(=O)n(CC(C)(C)C)ccc23)c(C)c1 [Compound 1405] | 0 to 25 |
| Cc1ccccc1C(=O)Nc1cccc2c(=O)n(CC(C)(C)C)ccc12 [Compound 1413] | 0 to 25 |
| CN1CCC(Cn2ccc3c(NC(=O)c4ccc(Cl)cc4Cl)cccc3c2=O)CC1 [Compound 1460] | 0 to 25 |
| O=C(Nc1cccc2c(=O)n(Cc3cccnc3)ccc12)c1ccc2ccccc2c1 [Compound 1448] | 0 to 25 |
| CC(C)(C)Cn1ccc2c(NC(=O)c3cc(Cl)ccc3Cl)cccc2c1=O [Compound 1412] | 0 to 25 |
| COCCn1ccc2c(NC(=O)C(C)c3ccccc3)cccc2c1=O (stereo not shown) [Compound 1431] | 0 to 25 |
| CC(C)Cc1ccc(C(=O)Nc2cccc3c(=O)n(C)ccc23)cc1 [Compound 1425] | 0 to 25 |
| CN1CCC(Cn2ccc3c(NC(=O)c4ccc(-c5ccccc5)o4)cccc3c2=O)CC1 [Compound 1458] | 0 to 25 |
| COc1ccc(C(=O)Nc2cccc3c(=O)n(CCN(C)C)ccc23)c(C)c1 [Compound 1398] | 0 to 25 |
| COCCn1ccc2c(NC(=O)Cc3ccccc3C)cccc2c1=O [Compound 1438] | 26 to 50 |
| Cc1cccc(C(=O)Nc2cccc3c(=O)n(CC4CCN(C)CC4)ccc23)c1 [Compound 1465] | 0 to 25 |

Now from value to compound:

| inhibition [%] | SMILES |
| --- | --- |
| 0 to 25 | CN1CCC(Cn2ccc3c(NC(=O)CCCc4ccccc4)cccc3c2=O)CC1 [Compound 1475] |
| 0 to 25 | Cc1cccc(CCC(=O)Nc2cccc3c(=O)n(CCCN4CCCC4=O)ccc23)c1 [Compound 1542] |
| 0 to 25 | Cc1ccc(CC(=O)Nc2cccc3c(=O)n(CCCN4CCCC4=O)ccc23)cc1 [Compound 1524] |
| 0 to 25 | Cc1ccc(CCC(=O)Nc2cccc3c(=O)n(CC4CCN(C)CC4)ccc23)c(C)c1 [Compound 1491] |
| 0 to 25 | O=C(Cc1ccccc1Cl)Nc1cccc2c(=O)n(Cc3ccc(OC(F)(F)F)cc3)ccc12 [Compound 1576] |
| 26 to 50 | O=C(CCc1ccc(Cl)cc1)Nc1cccc2c(=O)n(CCCN3CCCC3=O)ccc12 [Compound 1537] |
| 26 to 50 | O=C(Nc1cccc2c(=O)n(CCCN3CCCC3=O)ccc12)c1ccc(Cl)cc1Cl [Compound 1505] |
| 0 to 25 | Cc1cc(Cl)ccc1C(=O)Nc1cccc2c(=O)n(CC3CCN(C)CC3)ccc12 [Compound 1478] |
| 0 to 25 | CC(C)(C)c1ccc(C(=O)Nc2cccc3c(=O)n(CCCN4CCCC4=O)ccc23)cc1 [Compound 1516] |
| 0 to 25 | Cc1c(Cl)cccc1C(=O)Nc1cccc2c(=O)n(CC3CCN(C)CC3)ccc12 [Compound 1481] |
| 0 to 25 | Cc1ccc(C)c(CC(=O)Nc2cccc3c(=O)n(Cc4ccc(OC(F)(F)F)cc4)ccc23)c1 [Compound 1554] |
| 0 to 25 | CN1CCC(Cn2ccc3c(NC(=O)CC4CC5CC[C@H]4C5)cccc3c2=O)CC1 (stereo partly shown) [Compound 1479] |
| 0 to 25 | Cc1ccc(C(=O)Nc2cccc3c(=O)n(Cc4ccc(OC(F)(F)F)cc4)ccc23)cc1Cl [Compound 1591] |
| 0 to 25 | COc1ccc(CC(=O)Nc2cccc3c(=O)n(CC4CCN(C)CC4)ccc23)cc1OC [Compound 1473] |
| 0 to 25 | Cc1ccccc1CC(=O)Nc1cccc2c(=O)n(Cc3ccc(OC(F)(F)F)cc3)ccc12 [Compound 1579] |

same assay, conditions: THP-1 cells, BzATP-stimulated IL-1β release, four parameter logistic fit

| SMILES | IC50 [nM] |
| --- | --- |
| CN(C)CCn1ccc2c(NC(=O)Cc3ccc(Cl)c(C(F)(F)F)c3)cccc2c1=O [Compound 1385] | 152 |
| Cc1ccccc1C(=O)Nc1cccc2c(=O)n(CCN(C)C)ccc12 [Compound 1007] | > 1000 |
| CN(C)CCn1ccc2c(NC(=O)CCc3ccccc3)cccc2c1=O [Compound 1003] | > 1000 |

Further lines, results first:

| IC50 [nM] | SMILES |
| --- | --- |
| 25.5 | CC(c1ccccn1)n1ccc2c(NC(=O)Cc3cccc(C(F)(F)F)c3F)cccc2c1=O (stereo not shown) [Compound 1633, 2-(2-Fluoro-3-trifluoromethyl-phenyl)-N-[1-oxo-2-(1-pyridin-2-yl-ethyl)-1,2-dihydro-isoquinolin-5-yl]-acetamide] |
| > 1000 | CO[C@@](C(=O)Nc1cccc2c(=O)n(CCN(C)C)ccc12)(c1ccccc1)C(F)(F)F [Compound 1615] |
| 457 | CC1(C)CCCC(O)(CC(=O)Nc2cccc3c(=O)n(CCS(C)(=O)=O)ccc23)C1 (stereo not shown) [Compound 1629] |
| 41.1 | CC(C)(C)OC(=O)N1CCC[C@@H]1Cn1ccc2c(NC(=O)Cc3ccc(Cl)c(C(F)(F)F)c3)cccc2c1=O [Compound 1620] |
